Assay results as given in patent US7491722B2, “Pyridazin-3(2H)-one derivatives” (Laboratorios Almirall S.A., priority 2002, dated 2009).

Legend:
[1] = test system: PDE4; assay: PDE4 Assay Procedure ([3H]-cAMP SPA); type: biochemical
Description: Compounds to be tested were resuspended in DMSO at a stock concentration of 1 mM. The compounds were tested at different concentrations varying from 10 μM to 10 pM to calculate an IC50. These dilutions were done in 96-well plates. In some cases, plates containing diluted compounds were frozen before being assayed. In these cases, the plates were thawed at room temperature and stirred for 15 minutes.
Ten microliters of the diluted compounds were poured into a “low binding” assay plate. Eighty microliters of reaction mixture containing 50 mM Tris pH 7.5, 8.3 mM MgCl2, 1.7 mM EGTA, and 15 nM [3H]-cAMP were added to each well. The reaction was initiated by adding ten microliters of a solution containing PDE4. The plate was then incubated under stirring for 1 hour at room temperature. After incubation the reaction was stopped with 50 microlitres of SPA beads, and the reaction was allowed to incubate for another 20 minutes at room temperature before measuring radioactivity using standard instrumentation.
The reaction mixture was prepared by adding 90 ml of H2O to 10 ml of 10× assay buffer (500 mM Tris pH 7.5, 8.3 mM MgCl2, 17 mM EGTA), and 40 microlitres 1 μCi/μL [3H]-cAMP. SPA beads solution was prepared by adding 500 mg to 28 ml H2O for a final concentration of 20 mg/ml beads and 18 mM zinc sulphate.

| SMILES | IC50 [1] [nM] | melting point [°C] |
| --- | --- | --- |
| CCn1nc(-c2ccncc2)c(C(C)=O)c(Nc2ccc(C(=O)O)cc2)c1=O [Example 41, 4-[(5-acetyl-2-ethyl-3-oxo-6-pyridin-4-yl-2,3-dihydropyridazin-4-yl)amino]benzoic acid] | 16 |  |
| CCn1nc(-c2ccccc2)c(C(C)=O)c(Nc2cccnc2)c1=O [Example 63, 5-Acetyl-2-ethyl-6-phenyl-4-(pyridin-3-ylamino)pyridazin-3(2H)-one] | 24 |  |
| CCn1nc(-c2ccccc2)c(C(C)=O)c(Nc2cccc3cccnc23)c1=O [Example 67, 5-Acetyl-2-ethyl-6-phenyl(quinolin-8-ylamino)pyridazin-3(2H)-one] | 10 |  |
| CCn1nc(-c2ccccc2)c(C(C)=O)c(Nc2cccc3[nH]ccc23)c1=O [Example 69, 5-Acetyl-2-ethyl-4-(1H-indol-4-ylamino)-6-phenylpyridazin-3(2H)-one] | 2 |  |
| CC(=O)c1c(-c2cccc(F)c2)nn(C(C)C)c(=O)c1Nc1cccnc1 [Example 91] | 9.4 |  |
| CC(=O)c1c(-c2cccc(F)c2)nn(CC2CC2)c(=O)c1Nc1cccnc1 [Example 92, 5-Acetyl-2-cyclopropylmethyl-6-(3-fluorophenyl)-4-(pyridin-3-ylamino)-pyridazin-3(2H)-one] | 11 |  |
| CCn1nc(-c2ccc(F)cc2)c(C(C)=O)c(Nc2cccnc2)c1=O [Example 93, 5-Acetyl-6-(4-fluorophenyl)-2-ethyl 4-(pyridin-3-ylamino)-pyridazin-3(2H)-one] | 8.3 |  |
| CCn1nc(-c2cccc(C)c2)c(C(C)=O)c(Nc2cccc3ncccc23)c1=O [Example 195, 5-Acetyl-2-ethyl-6-(3-methylphenyl)-4-(quinolin-5-ylamino)pyridazin-3(2H)-one] |  | 245 to 246.1 |

Continued by falling IC50 [1], values first:

| IC50 [1] [nM] | melting point [°C] | SMILES |
| --- | --- | --- |
| 6.8 |  | CCn1nc(-c2cccnc2)c(C(C)=O)c(Nc2cccc3ccccc23)c1=O [Example 4, 5-Acetyl-2-ethyl-4-(1-naphthylamino)-6-pyridin-3-ylpyridazin-3(2H)-one] |
| 5.2 |  | CCn1nc(-c2cccs2)c(C(C)=O)c(Nc2cccc(Cl)c2)c1=O [Example 52, 5-Acetyl-4-[(3-chlorophenyl)amino]-2-ethyl-6-thien-2-ylpyridazin-3(2H)-one] |
| 4.5 |  | CCn1nc(-c2ccncc2)c(C(C)=O)c(Nc2cccc(Cl)c2)c1=O [Example 31, 5-Acetyl-4-[(3-chlorophenyl)amino]-2-ethyl-6-pyridin-4-ylpyridazin-3(2H)-one] |
| 2.6 |  | CCn1nc(-c2ccccc2)c(C(C)=O)c(Nc2cccc3cnccc23)c1=O [Example 84, 5-Acetyl-2-ethyl-4-(isoquinolin-5-ylamino)-6-phenylpyridazin-3(2H)-one] |
| 2.3 |  | CCn1nc(-c2cccnc2)c(C(C)=O)c(Nc2cccc(F)c2)c1=O [Example 1, 5-Acetyl-2-ethyl-4-[(3-fluorophenyl)amino]-6-pyridin-3-ylpyridazin-3(2H)-one] |
| 0.59 |  | CCn1nc(-c2ccncc2)c(C(C)=O)c(Nc2cccc3ccccc23)c1=O [Example 32, 5-Acetyl-2-ethyl-4-(1-naphthylamino)-6-pyridin-4-ylpyridazin-3(2H)-one] |
| 0.3 |  | CCn1nc(-c2ccccc2)c(C(C)=O)c(Nc2cccc3ncccc23)c1=O [Example 82, 5-Acetyl-2-ethyl-6-phenyl-4-(quinolin-5-ylamino)pyridazin-3(2H)-one] |
| 0.11 |  | CCn1nc(-c2ccncc2)c(C(C)=O)c(Nc2ccccc2C)c1=O [Example 33, 5-Acetyl-2-ethyl-4-[(2-methylphenyl)amino]-6-pyridin-4-ylpyridazin-3(2H)-one] |
